Reference: patent US20060057696A1, “Sugar chain synthases” (priority 2002, published 2006)

Target: T1, PA-mST8Sia VI (mouse ST8Sia VI) (Mus musculus, UniProt Q8K4T1)
T1 construct: amino acids 26-398 in the case of mouse ST8Sia VI; signal peptide of mouse immunoglobulin IgM (N); made in house; host or cells: COS-7 cells, transient expression of pcDSA-mST8Sia VI; protein recovered from medium on IgG-Sepharose
T1 sequence (Q8K4T1 26-398): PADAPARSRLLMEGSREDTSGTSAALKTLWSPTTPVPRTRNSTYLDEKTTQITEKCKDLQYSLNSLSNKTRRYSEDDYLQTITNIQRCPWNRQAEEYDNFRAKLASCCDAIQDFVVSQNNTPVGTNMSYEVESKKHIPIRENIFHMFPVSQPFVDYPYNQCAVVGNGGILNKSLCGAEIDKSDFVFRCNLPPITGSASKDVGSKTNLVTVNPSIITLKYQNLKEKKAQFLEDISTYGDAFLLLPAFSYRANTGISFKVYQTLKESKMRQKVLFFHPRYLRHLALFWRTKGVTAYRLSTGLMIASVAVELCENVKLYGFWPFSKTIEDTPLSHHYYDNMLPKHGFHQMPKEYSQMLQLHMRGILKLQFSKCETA
Experiment: Sialyltransferase activity of PA-mST8Sia VI toward acceptor substrates
Type: biochemical
Conditions: for Relative rate (%) Mouse ST8SiaVI: incorporation with Fetuin taken as 100, substrate 0.5 mg/ml glycolipids, 1 mg/ml glycoproteins, monosaccharides and oligosaccharides
Protocol: Using each expression vector and lipofectamine (Invitrogen), transient expression was carried out in COS-7 cells (Kojima, N. et al. (1995) FEBS Lett. 360, 1-4). The proteins of the present invention secreted from the cells into which each expression vector had been introduced were named as PA-mST8Sia VI (mouse) and PA-hST8Sia VI (human). PA-mST8Sia VI and PA-hST8Sia VI were adsorbed to IgG-Sepharose (Amersham Pharmacia Biotech), and were then recovered from medium. Sialyltransferase activity was measured as follows according to the method of Lee et al. (Lee, Y.-C. et al. (1999) J. Biol. Chem. 274, 11958-11967). A reaction solution (10 μl) containing 50 mM MES buffer (pH 6.0), 1 mM MgCl2, 1 mM CaCl2, 0.5% Triton CF-54, 100 μM CMP-[^14C]-NeuAc, a glycoconjugate (which was added at 0.5 mg/ml in the case of glycolipids, and at 1 mg/ml in the case of glycoproteins or oligosaccharides), and a PA-mST8Sia VI or PA-hST8Sia VI suspension, was incubated at 37° C. for 3 to 20 hours. Thereafter, in the case of glycolipids, the reaction product was purified with a C-18 column (Sep-Pak Vac 100 mg; Waters) and the purified product was used as a sample, and in the case of oligosaccharides or glycoproteins, the reaction product was directly used as a sample. Thus, the obtained samples were subjected to analysis. In the case of oligosaccharides or glycolipids, the sample was spotted on a silica gel 60 HPTLC plate (Merck), and was then developed with a developing solvent consisting of ethanol:pyridine:n-butanol:water:acetic acid=100:10:10:30:3 (for oligosaccharides), a developing solvent consisting of 1-propanol:ammonia water:water=6:1:2.5 (for oligosaccharides), or a developing solvent consisting of chloroform:methanol: 0.02% CaCl2=55:45:10 (for glycolipids). In the case of glycoproteins, analysis was carried out by SDS-polyacrylamide gel electrophoresis. The obtained radioactivities were visualized with a BAS2000 radio image analyzer (Fuji Film) and then quantified.

| Compound | Relative rate (%) Mouse ST8SiaVI [%] | activity of PA-mST8Sia VI on the substrate (in words) |
| --- | --- | --- |
| CC(=O)NC1C(O)OC(CO)C(OC2OC(CO)C(O)C(OC3(C(=O)O)CC(O)C(NC(C)=O)C(C(O)C(O)CO)O3)C2O)C1O (stereo not drawn) [3′-Sialyl-N-acetyllactosamine, NeuAcα2,3Galβ1,4GlcNAc] | 411 | – |
| CC(=O)N[C@H]1[C@H]([C@H](O)[C@H](O)CO)O[C@@](O[C@H]2[C@@H](O)[C@@H](CO)OC(O)[C@@H]2O)(C(=O)O)C[C@@H]1O (stereo partly drawn) [3′-Sialylgalactose, NeuAcα2,3Gal] | 13.9 | – |
| CC(=O)N[C@@H]1[C@@H](O)[C@H](O[C@@H]2O[C@H](CO[C@]3(C(=O)O)C[C@H](O)[C@@H](NC(C)=O)[C@H]([C@H](O)[C@H](O)CO)O3)[C@H](O)[C@H](O)[C@H]2O)[C@@H](CO)O[C@H]1O [6′-Sialyl-N-acetyllactosamine, NeuAcα2,6Galβ1,4GlcNAc] | 88.7 | – |
| CC(=O)N[C@H]1[C@H]([C@H](O)[C@H](O)CO)O[C@@](OC[C@H]2OC(O)[C@H](O)[C@@H](O)[C@H]2O)(C(=O)O)C[C@@H]1O (stereo partly drawn) [6′-Sialylgalactose, NeuAcα2,6Gal] | 2.0 | – |
| O=C[C@H](O)[C@@H](O)[C@@H](O)[C@H](O)CO [Galactose] | 0 | – |
| CC(=O)N[C@H]1C(O)O[C@H](CO)[C@H](O)[C@@H]1O (stereo partly drawn) [N-Acetylgalactosamine] | 0 | – |
| CC(=O)N[C@H]1[C@H]([C@H](O)[C@H](O)CO)OC(O)(C(=O)O)C[C@@H]1O (stereo partly drawn) [N-Acetylneuraminic acid] | 0 | – |
| Galβ1,3GalNAcβ1,4(NeuAcα2,8NeuAcα2,3)Galβ1,4Glcβ1-Cer [GD1b] | 0 | – |
| NeuAcα2,3Galβ1,3GalNAcβ1,4Galβ1,4Glcβ1-Cer [GM1b] | 1.0 | showed activity |
| NeuAcα2,3Galβ1,4GlcNAcβ1,3Galβ1,4Glcβ1-Cer [2,3-SPG] | 3.5 | showed activity |
| NeuAcα2,3Galβ1-Cer [GM4] | 1.0 | showed activity |
| NeuAcα2,6Galβ1,3GalNAcβ1,4Galβ1,4Glcβ1-Cer [GSC-68] | 2.6 | showed activity |
| NeuAcα2,6Galβ1,4GlcNAcβ1,3Galβ1,4Glcβ1-Cer [2,6-SPG] | 0.98 | showed activity |
